According to US7005431B2, “Imidazo-triazine derivatives as ligands for gaba receptors” (Merck Sharp & Dohme Ltd., priority 2002, dated 2006):

| melting point [°C] | SMILES |
| --- | --- |
| 166 to 169 | CC(C)(F)c1cnn2c(-c3ccc(F)c(-c4ccc(F)cc4C#N)c3F)cnc2n1 [Example 3, 3′-[3-(1-Fluoro-1-methylethyl)imidazo[1,2-b][1,2,4]triazin-7-yl]-4,2′,6′-trifluorobiphenyl-2-carbonitrile] |
| 177 to 179 | CC(C)(O)c1cnn2c(-c3ccc(F)c(-c4c(F)cccc4C#N)c3F)cnc2n1 [Example 2, 3′-[3-(1-Hydroxy-1-methylethyl)imidazo[1,2-b][1,2,4]triazin-7-yl]-6,2′,6′-trifluorobiphenyl-2-carbonitrile] |
